Several values for one entry are separate records, joined by “and”; a condition that tells them apart may be missing. Equal values may be shown once. Toxic doses and inconclusive results are not listed.
System: P388 leukemia ip, CD2F1 mice, survival T/C
Test: NCI In Vivo Anticancer Drug Screen. Data for tumor model P388 Leukemia (intraperitoneal) in CD2F1 (CDF1) mice
Conditions: endpoint: median survival time, higher = longer survival
Method in brief: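 Mice carrying the transplanted tumor received test compound or vehicle. Survival was recorded in each group, and the value is the treated-group measurement divided by that of the vehicle-treated control group.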

[1] = dose: 12.5 mg/kg/injection, schedule: Q01DX009 (ip), vehicle: water
[2] = dose: 25.0 mg/kg/injection, schedule: Q01DX005 (ip), vehicle: Klucel (hydroxypropylcellulose) (HPC)
[3] = dose: 50.0 mg/kg/injection, schedule: Q01DX005 (ip), vehicle: Klucel (hydroxypropylcellulose) (HPC)

How did the T/C (dose: 1.5 mg/kg/injection, schedule: Q01DX008 (ip), vehicle: water) turn out when `O=NNc1ccc(Br)cn1` was run?
Its T/C is 100 % of control.

What about the T/C (dose: 1.56 mg/kg/injection, schedule: Q01DX009 (ip), vehicle: water) of the same compound?
The T/C was 115 % of control.

And the T/C (dose: 6.25 mg/kg/injection, schedule: Q01DX008 (ip), vehicle: water)?
Its T/C is 154 % of control.

What about the T/C [1] of the same compound?
Its T/C is 184 % of control.

What about the T/C (dose: 25.0 mg/kg/injection, schedule: Q01DX008 (ip), vehicle: water) of the same compound?
Its T/C is 181 % of control.

With `NC1=NN(Cc2csc(-c3ccccc3)n2)C(=O)C1` as the compound, how does the T/C (dose: 60.0 mg/kg/injection, schedule: Q01DX005 (ip), vehicle: saline with Tween-80) read?
Its T/C is 103 % of control.

And the T/C (dose: 120.0 mg/kg/injection, schedule: Q01DX005 (ip), vehicle: saline with Tween-80)?
Its T/C is 95 % of control.

And the T/C (dose: 240.0 mg/kg/injection, schedule: Q01DX005 (ip), vehicle: saline with Tween-80)?
Its T/C is 103 % of control.

Which T/C (dose: 1.0 mg/kg/injection, schedule: Q01DX009 (ip), vehicle: saline with Tween-80) does the source give for `CC(C)CC1C(=O)OC(C(C)C)C(=O)N(C)C(CC(C)C)C(=O)OC(C(C)C)C(=O)N(C)C(CC(C)C)C(=O)OC(C(C)C)C(=O)N(C)C(CC(C)C)C(=O)OC(C(C)C)C(=O)N1C` (configuration not stated) here?
Its T/C is 99 % of control.

What about the T/C (dose: 2.0 mg/kg/injection, schedule: Q01DX009 (ip), vehicle: saline with Tween-80) of the same compound?
Its T/C is 90 % of control.

What about the T/C (dose: 4.0 mg/kg/injection, schedule: Q01DX009 (ip), vehicle: saline with Tween-80) of the same compound?
The T/C was 101 % of control.

And the T/C (dose: 8.0 mg/kg/injection, schedule: Q01DX009 (ip), vehicle: saline with Tween-80)?
Its T/C is 101 % of control.

What about the T/C (dose: 16.0 mg/kg/injection, schedule: Q01DX009 (ip), vehicle: saline with Tween-80) of the same compound?
Its T/C is 96 % of control.

With `Cc1noc(C)c1CON` as the compound, how does the T/C (dose: 75.0 mg/kg/injection, schedule: Q01DX009 (ip), vehicle: saline with Tween-80) read?
Its T/C is 91 % of control.

And the T/C (dose: 75.0 mg/kg/injection, schedule: Q04DX003 (ip), vehicle: saline)?
Its T/C is 95 % of control.

What about the T/C (dose: 150.0 mg/kg/injection, schedule: Q04DX003 (ip), vehicle: saline) of the same compound?
Its T/C is 95 % of control.

And the T/C (dose: 300.0 mg/kg/injection, schedule: Q04DX003 (ip), vehicle: saline)?
The T/C was 91 % of control.

What does the source list for `CN(C)c1c(-c2ccccc2)nnc(-c2ccccc2)c1-c1ccccc1`?
T/C (dose: 100.0 mg/kg/injection, schedule: Q01DX001 (ip), vehicle: Klucel (hydroxypropylcellulose) (HPC)): 103 % of control; T/C (dose: 200.0 mg/kg/injection, schedule: Q01DX001 (ip), vehicle: Klucel (hydroxypropylcellulose) (HPC)): 100 % of control; T/C (dose: 400.0 mg/kg/injection, schedule: Q01DX001 (ip), vehicle: Klucel (hydroxypropylcellulose) (HPC)): 101 % of control

For `CC(=O)Oc1cccc2c1ccc1nonc12`, which T/C (dose: 50.0 mg/kg/injection, schedule: Q01DX005 (ip), vehicle: saline with Tween-80) is on record?
Its T/C is 88 % of control.

What about the T/C (dose: 100.0 mg/kg/injection, schedule: Q01DX005 (ip), vehicle: saline with Tween-80) of the same compound?
Its T/C is 88 % of control.

What about the T/C (dose: 200.0 mg/kg/injection, schedule: Q01DX005 (ip), vehicle: saline with Tween-80) of the same compound?
The T/C was 88 % of control.

With `O=C(NCCCl)Nc1ccccc1C(=O)O` as the compound, how does the T/C (dose: 50.0 mg/kg/injection, schedule: Q01DX009 (ip), vehicle: saline with Tween-80) read?
The T/C was 90 % of control.

And the T/C (dose: 100.0 mg/kg/injection, schedule: Q01DX009 (ip), vehicle: saline with Tween-80)?
The T/C was 95 % of control.

And the T/C (dose: 200.0 mg/kg/injection, schedule: Q01DX009 (ip), vehicle: saline with Tween-80)?
The T/C was 99 % of control.

For `NC1C(=O)NC(=O)NC1=O`, which T/C [2] is on record?
Its T/C is 96 % of control.

And the T/C [3]?
Its T/C is 96 % of control.

And the T/C (dose: 100.0 mg/kg/injection, schedule: Q01DX005 (ip), vehicle: Klucel (hydroxypropylcellulose) (HPC))?
Its T/C is 98 % of control.

What about the T/C (dose: 200.0 mg/kg/injection, schedule: Q01DX005 (ip), vehicle: Klucel (hydroxypropylcellulose) (HPC)) of the same compound?
Its T/C is 100 % of control.

And the T/C (dose: 400.0 mg/kg/injection, schedule: Q01DX005 (ip), vehicle: Klucel (hydroxypropylcellulose) (HPC))?
Its T/C is 105 % of control.

What does the source list for `CC(=O)n1c(Cl)c(/C=N/NS(=O)(=O)c2ccc(C)cc2)c2ccccc21`?
T/C (dose: 25.0 mg/kg/injection, schedule: Q01DX001 (ip), vehicle: saline with Tween-80): 100 % of control; T/C (dose: 50.0 mg/kg/injection, schedule: Q01DX001 (ip), vehicle: saline with Tween-80): 86 % of control and 88 % of control; T/C (dose: 100.0 mg/kg/injection, schedule: Q01DX001 (ip), vehicle: saline with Tween-80): 91 % of control

What does the source list for `COc1ccc2cc3c[n+](C)ccc3cc2c1OC`?
T/C [1]: 118 % of control; T/C (dose: 25.0 mg/kg/injection, schedule: Q01DX009 (ip), vehicle: water): 112 % of control

Which results are given for `[CH3][Sn]1([CH3])[O]C(=O)CC(CC(=O)O)C(=O)[O]1` (configuration not stated)?
T/C (dose: 12.5 mg/kg/injection, schedule: Q01DX005 (ip), vehicle: Klucel (hydroxypropylcellulose) (HPC)): 119 % of control; T/C [2]: 117 % of control; T/C [3]: 113 % of control and 117 % of control

`O=C(O)c1cc(Cc2ccc(O)c(C(=O)O)c2)ccc1O` (tested in a mixture with another compound) was tested. Which T/C (dose: 25.0 mg/kg/injection, schedule: Q01DX009 (ip), vehicle: Klucel (hydroxypropylcellulose) (HPC)) did it give?
Its T/C is 112 % of control.

What about the T/C (dose: 50.0 mg/kg/injection, schedule: Q01DX009 (ip), vehicle: Klucel (hydroxypropylcellulose) (HPC)) of the same compound?
The T/C was 107 % of control and 115 % of control.

What about the T/C (dose: 100.0 mg/kg/injection, schedule: Q01DX009 (ip), vehicle: Klucel (hydroxypropylcellulose) (HPC)) of the same compound?
The T/C was 121 % of control.
